Data taken from ChEMBL document CHEMBL4017461, “Investigation of the inhibitory mechanism of apomorphine against MDM2-p53 interaction” (Bioorg Med Chem Lett, 2017).
pIC50: −log10 of the molar value. Calls of active or inactive are those of the source. The calls are words filed in the database; no cut-off is given here.

Assays:
Homo sapiens = species on record: Homo sapiens; test: Binding affinity to MDM2 Cys(Me)77 mutant (unknown origin) assessed as adduct formation at 10 uM after 10 mins by MALDI-TOF-MS analysis
[1] = target: T1, E3 ubiquitin-protein ligase Mdm2 (Homo sapiens, UniProt Q00987); test: Binding affinity to MDM2 (25 to 109 residues) (unknown origin) assessed as adduct formation at 10 uM after 10 mins by MALDI-TOF MS analysis
Target sequence in this assay (Q00987 whole entry, looked up, the tested form may be a part): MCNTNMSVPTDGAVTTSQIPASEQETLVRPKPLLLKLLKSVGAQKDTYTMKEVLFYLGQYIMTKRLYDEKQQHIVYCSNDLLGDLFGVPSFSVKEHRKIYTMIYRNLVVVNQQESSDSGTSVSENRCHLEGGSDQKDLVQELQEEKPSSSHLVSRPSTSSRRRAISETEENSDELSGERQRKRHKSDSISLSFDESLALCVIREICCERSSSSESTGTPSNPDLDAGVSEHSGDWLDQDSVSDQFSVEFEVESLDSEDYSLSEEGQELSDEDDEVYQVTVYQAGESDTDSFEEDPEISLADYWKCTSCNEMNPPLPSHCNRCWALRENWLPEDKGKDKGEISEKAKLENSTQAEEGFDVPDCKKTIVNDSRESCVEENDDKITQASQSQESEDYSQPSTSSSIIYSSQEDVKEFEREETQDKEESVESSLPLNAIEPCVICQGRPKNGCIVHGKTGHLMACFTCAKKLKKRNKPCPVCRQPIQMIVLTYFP

[2] = Inhibition of biotin-labelled P4 peptide binding to MDM2 Cys(Me)77 mutant (unknown origin) by surface plasmon resonance method; design: species or system Homo sapiens
[3] = Drug level in 1:1 PBS/CH3CN mixture treated with R-(-)-apomorphine at 10 mM measured after 24 hrs by HPLC method
[4] = target: T1, E3 ubiquitin-protein ligase Mdm2; test: Inhibition of biotin-labelled P4 peptide binding to MDM2 (25 to 109 residues) (unknown origin) by surface plasmon resonance method
Target sequence in this assay (Q00987 whole entry, the tested form may be a part): as the sequence (Q00987 whole entry, looked up, the tested form may be a part) above

[5] = Inhibition of biotin-labelled P4 peptide binding to MDM2 Ser77 mutant (unknown origin) by surface plasmon resonance method; design: species or system Homo sapiens
[6] = target: T1, E3 ubiquitin-protein ligase Mdm2; test: Inhibition of biotin-labelled p53 binding to MDM2 (25 to 109 residues) (unknown origin) by surface plasmon resonance method
[7] = target: T1, E3 ubiquitin-protein ligase Mdm2; test: Inhibition of biotin-labelled L-p53 binding to L-MDM2 (25 to 109 residues) (unknown origin) by FAM labeled P4 peptide based fluorescence polarization assay
Target sequence in this assay (Q00987 whole entry, the tested form may be a part): as the sequence (Q00987 whole entry, looked up, the tested form may be a part) above

[8] = target: T1, E3 ubiquitin-protein ligase Mdm2; test: Inhibition of biotin-labelled D-p53 binding to D-MDM2 (25 to 109 residues) (unknown origin) by FAM labeled P4 peptide based fluorescence polarization assay
Target sequence in this assay (Q00987 whole entry, looked up, the tested form may be a part): as above

[9] = Inhibition of biotin-labelled p53 binding to MDM2 Ser77 mutant (unknown origin) by surface plasmon resonance method; design: species or system Homo sapiens

Structure (SMILES)	pIC50 [2]	pIC50 [4]	pIC50 [5]	inhibition [6]	pIC50 [7]	pIC50 [6]	other results
CN1CCc2cccc3c4c(cc1c23)C=CC(=O)C4=O	< 4.52	5.77	< 4.52	Active			Activity (Homo sapiens): Active; Activity [1]: inactive; Drug metabolism [3]: Metabolite detected
CN1CCc2cccc3c2[C@@H]1Cc1ccc(O)c(O)c1-3 [(S)APOMORPHINE]					6.76		
CN1CCc2cccc3c2[C@H]1Cc1ccc(O)c(O)c1-3 [APOMORPHINE]	< 4.52	< 4.52	< 4.52	inactive	6.67		pIC50 [8]: 6.71
O=C1C=CC(=O)C=C1 [BENZOQUINONE]						4.86	pIC50 [9]: < 4.00
Oc1ccccc1O [CATECHOL]						< 4.00	
